Results as given in ChEMBL document CHEMBL1781877, “Synthesis and evaluation of new carbonic anhydrase inhibitors” (2011).

system: Mus musculus; assay: Antihypoxic activity in fasted Kunming mouse assessed as survival time of mouse under hypoxic condition at 80 mg/kg administered for 5 days (reference value: 2199 +/-217 secs); type: functional

Compound | Time [s]
CCN(c1nnc(S(N)(=O)=O)s1)S(=O)(=O)c1ccccc1 | 2716
Cc1ccc(CN(c2nnc(S(N)(=O)=O)s2)S(=O)(=O)c2ccc(C)cc2)cc1 | 2512
Cc1ccc(S(=O)(=O)N(c2nnc(S(N)(=O)=O)s2)C(C)C)cc1 | 2426
CCCCN(c1nnc(S(N)(=O)=O)s1)S(=O)(=O)c1ccccc1 | 2977
CCCN(c1nnc(S(N)(=O)=O)s1)S(=O)(=O)c1ccccc1 | 3135
Cc1ccc(S(=O)(=O)N(CC(C)C)c2nnc(S(N)(=O)=O)s2)cc1 | 3486
Cc1ccc(S(=O)(=O)N(Cc2ccccc2)c2nnc(S(N)(=O)=O)s2)cc1 | 2582
CCCCCN(c1nnc(S(N)(=O)=O)s1)S(=O)(=O)c1ccccc1 | 2716
Cc1ccc(S(=O)(=O)N(CCc2ccccc2)c2nnc(S(N)(=O)=O)s2)cc1 | 2441
CC(=O)Nc1nnc(S(N)(=O)=O)s1 [ACETAZOLAMIDE] | 2726
Cc1ccc(S(=O)(=O)N(Cc2ccc(F)cc2)c2nnc(S(N)(=O)=O)s2)cc1 | 2860
